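Method: 48-hour compound exposure of cells in 96-well plates, five concentrations, linear interpolation of endpoints. The concentration for full growth arrest is given as TGI.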 Where a SMILES comes first, the peptide text is derived from it. The star is where a group is joined. Boc = CC(C)(C)OC(=O)*
How the values were obtained:
Test in all cases: growth of human tumour cells (NCI), 48 h
SNB-19 CNS = test system: SNB-19 CNS
M14 melanoma = test system: M14 melanoma
NCI-H23 lung = test system: NCI-H23 lung
TK-10 renal = test system: TK-10 renal
CCRF-CEM leukemia = test system: CCRF-CEM leukemia
SF-268 CNS = test system: SF-268 CNS
RPMI-8226 leukemia = test system: RPMI-8226 leukemia
UO-31 renal = test system: UO-31 renal
SK-MEL-5 melanoma = test system: SK-MEL-5 melanoma
KM12 colon = test system: KM12 colon
CAKI-1 renal = test system: CAKI-1 renal
HOP-92 NSCLC = test system: HOP-92 NSCLC
NCI-H460 lung = test system: NCI-H460 lung
SN12C renal = test system: SN12C renal
A498 renal = test system: A498 renal
DU-145 prostate = test system: DU-145 prostate
HS 578T breast = test system: HS 578T breast
T-47D breast = test system: T-47D breast

Structure (SMILES) | TGI (SNB-19 CNS) [µM] | TGI (M14 melanoma) [µM] | TGI (NCI-H23 lung) [µM] | TGI (TK-10 renal) [µM] | TGI (CCRF-CEM leukemia) [µM] | TGI (SF-268 CNS) [µM] | TGI (RPMI-8226 leukemia) [µM] | TGI (UO-31 renal) [µM] | TGI (SK-MEL-5 melanoma) [µM] | TGI (KM12 colon) [µM] | TGI (CAKI-1 renal) [µM] | TGI (HOP-92 NSCLC) [µM] | TGI (NCI-H460 lung) [µM] | TGI (SN12C renal) [µM] | TGI (A498 renal) [µM] | TGI (DU-145 prostate) [µM] | TGI (HS 578T breast) [µM] | TGI (T-47D breast) [µM]
COC(=O)c1onc(-c2c(OC)cc(OC)cc2OC)c1C(=O)OC | > 100 | > 100 | > 100 | > 100 | > 100 | > 100 | > 100 | > 100 | > 100 | > 100 | > 100 | > 100 | > 100 |  |  |  |  | 
COc1cccc(NC(=O)CSc2nnc(-c3ccc(NC(C)=O)cc3)o2)c1 |  | > 100 | > 100 | > 100 | > 100 | > 100 | > 100 | > 100 | > 100 | > 100 | > 100 | > 100 | > 100 | > 100 |  |  |  | 
O=C(O)c1ccc(C2COc3ccc(Cl)cc3C2)cc1 (configuration not stated) | > 100 | > 100 | > 100 | > 100 | > 100 | > 100 | > 100 | > 100 | > 100 | > 100 | > 100 | > 100 | > 100 | > 100 | > 100 |  |  | 
CCC(CCCN)Nc1cc(OC)cc2c(C)ccnc12 (configuration not stated) | 27.9 | 29.3 |  | 31.7 | 52.6 | 31.6 |  | 25.6 | 31.6 | 29 | 29.5 | 30.6 | 32.3 | 53.5 | 34 | 35.5 | 27.6 | 
O=c1[nH]cc(COCCCO)c(=O)[nH]1 | > 100 | > 100 | > 100 | > 100 | > 100 | > 100 | > 100 | > 100 | > 100 | > 100 | > 100 | > 100 | > 100 | > 100 | > 100 |  |  | 
C/C=C1\CN2CCc3c([nH]c4ccccc34)C2CC1C(=O)OC (configuration not stated) | > 322 |  | > 322 | > 322 | > 322 | > 322 | > 322 |  | > 322 | > 322 | > 322 | > 322 | > 322 | > 322 |  |  |  | 
COC1/C=C/C(C)C(C(C)C(OC)C(C)CCC(=O)C(C)C(C/C=C/N(C)C=O)OC)OC(=O)C=CC2OC2(C)CC(OC)C(OC)C2=CC(=O)O[C@@H](C(C)C(OC)CC(OC)/C=C/C(C)C(O)C1)[C@H]2O (some centres not stated) | 0.0316 | 0.00985 | > 0.322 | 0.0304 | > 1.24 | 0.0186 | > 1.24 | 0.00831 | 0.0284 |  | 0.0203 | 0.0235 | > 0.351 | 0.0342 | 0.0259 | 0.199 | 0.0351 | 
CC1(C)C=Cc2c(cc(O)c3c(=O)c4cc(Cl)ccc4[nH]c23)O1 | 6.4 |  | 6.54 | > 10 | > 10 | > 10 | 6.27 | 5.91 | 6.33 | 8.75 | > 10 | 7.79 | > 10 | > 10 |  |  |  | > 10
CC(=O)C1C(=O)C(=O)N(c2cccc([N+](=O)[O-])c2)C1=O (configuration not stated) | > 100 | > 100 | > 100 | > 100 | > 100 | > 100 |  | > 100 | > 100 | > 100 | > 100 | > 100 | > 100 | > 100 |  | > 100 | > 100 | 
CCOC(=O)/C(C=Nc1c(C)n(C)n(-c2ccccc2)c1=O)=C(/C)O |  | > 100 | > 100 | > 100 | > 100 |  | > 100 | > 100 | > 100 | > 100 | > 100 | > 100 |  | > 100 | > 100 | > 100 |  | 
Cc1ccc(/C=C/C(=O)C(C)(C)CN2CCCCC2)cc1 | 8.73 | 20.2 | 30.5 | 24.1 | 10.4 | 36.2 | 14.7 | 22 | 8.36 | 13.4 | 14.2 |  | 23.5 | 15.1 | 19.5 |  |  | 
COC(=O)[C@H](CCSC)NC(=O)N[C@H](C)c1ccccc1 | > 100 | > 100 | > 100 | > 100 | > 100 | > 100 | > 100 | > 100 | > 100 | > 100 | > 100 | > 100 | > 100 | > 100 | > 100 | > 100 | > 100 | 
NC(N)=NCCCC(NC(=O)c1cccc2c(=O)c3ccccc3[nH]c12)C(=O)O (configuration not stated) | > 100 | > 100 | > 100 | > 100 | > 100 | > 100 | > 100 | > 100 | > 100 | > 100 |  | > 100 |  | > 100 | > 100 | > 100 | > 100 | 
COc1ccc(CC2(O)C3CC4CCC2C4C3)cc1 (configuration not stated) | > 100 | > 100 | > 100 | > 100 | > 100 | > 100 | > 100 | > 100 | > 100 | > 100 | > 100 | > 100 | > 100 | > 100 |  |  | > 100 | 
CCN1CCC(C)OP1(=O)Cc1ccccc1 (configuration not stated) | > 100 | > 100 | > 100 | > 100 |  | > 100 | > 100 | > 100 | > 100 | > 100 | > 100 |  | > 100 |  |  | > 100 |  | > 100
c1ccc2c(c1)C1CCCCCC21N1CCOCC1 (configuration not stated) | > 100 | > 100 | > 100 | > 100 | > 100 | > 100 |  | > 100 | > 100 | > 100 | > 100 |  | > 100 | > 100 | > 100 |  |  | 
CCn1c2ccccc2c2ccc3c(c21)C(=O)C=CC3=O |  | 14.9 | 51.1 | 30 | > 100 | 40 | > 100 | 21.6 |  | 27.4 |  | 30.3 | 45.5 | 33.5 |  |  |  | 
CC(C)(C)OC(=O)NC(Cc1ccc(O)cc1)C(=O)N1CCCC1C(=O)O (stereo not drawn) (Boc-Tyr-Pro-OH; configuration not given here) | > 100 | > 100 | > 100 | > 100 | > 100 | > 100 | > 100 | > 100 | > 100 | > 100 | > 100 | > 100 | > 100 | > 100 | > 100 |  |  | 
COc1cccc(OC)c1C(=O)OCc1ccccc1 |  | > 100 | > 100 | > 100 | > 100 | > 100 | > 100 |  | > 100 | > 100 | > 100 | > 100 | > 100 | > 100 |  |  |  | 
CC(=O)C(CN(CC(C)C)CC(C)C)C(c1ccccc1)c1c(O)c2ccccc2oc1=O (configuration not stated) | > 100 | > 100 | > 100 | > 100 |  | > 100 | > 100 |  |  |  | > 100 | > 100 |  | > 100 | > 100 |  |  | 
CCN1C(=O)c2cc(OC)c(OC)cc2C(=O)C12OC(=O)c1cc3c(cc12)OCO3 (configuration not stated) | > 100 | > 100 | > 100 | > 100 | > 100 | > 100 | > 100 | > 100 | > 100 | > 100 | > 100 | > 100 | > 100 | > 100 | > 100 | 88.4 | > 100 | 
CC(=O)CN(Cc1cc(C)c2c(c1)c1ccccc1n2Cc1ccccc1)S(=O)(=O)c1ccc(C)cc1 | > 100 | > 100 | > 100 | > 100 | > 100 | > 100 | > 100 | > 100 | > 100 | > 100 | > 100 | > 100 |  |  |  |  |  | 
COc1cc(C2SCC(=O)N2c2cccc(Cl)c2)cc(OC)c1OC (configuration not stated) | > 100 | > 100 | > 100 | > 100 | 91.2 | > 100 | > 100 | > 100 | > 100 | > 100 | > 100 | > 100 | > 100 | > 100 | > 100 | > 100 | > 100 | 
CCCCCCCOc1ccc(/C=C\c2cc[n+](CCCCCCCC[n+]3ccc(/C=C\c4ccc(OCCCCCCC)cc4)cc3)cc2)cc1 | > 100 | 34.5 | > 100 | 43.7 | > 100 | 44.6 | > 100 | 41.2 | 27.7 | 28.2 | 63.7 | > 100 | 17 | 57 | 80.8 |  |  | 

Reference: PubChem BioAssay (NCI)
